Series [1] relates to Plasmodium falciparum. Kind of series: Antiplasmodial activity against asexual blood-stage (ABS) MDR Plasmodium falciparum Dd2 infected in human erythrocytes assessed as reduction in fluorescence measured after 72 hrs by Malaria SYBR Green I-based Fluorescence (MSF) assay. Format: functional, organism-based. To be noted: Dd2, Erythrocyte.
The subject of series [2] is Plasmodium cynomolgi. The series can be described thus: Antiplasmodial activity against hypnozoite Plasmodium cynomolgi B strain infected in Macaca mulatta hepatocytes incubated with sporozoite containing salivary gland homogenate obtained from dissected Anopheles dirus mosquitoes (infected with Plasmodium cynomolgi B strain) treatment started on day 4 post infection and continued daily for 4 days into fresh changed media until day 8 assessed as Liver stage (LS) activity by measuring radical cure mode by immunofluorescent staining analysis. To be noted: Hepatocyte. Format: functional, organism-based.

The conditions of series [3]: mouse, microsomes, 1 h.
The test system of series [4] is Plasmodium cynomolgi. Kind of series: Antiplasmodial activity against schizont Plasmodium cynomolgi B strain infected in Macaca mulatta hepatocytes incubated with sporozoite containing salivary gland homogenate obtained from dissected Anopheles dirus mosquitoes (infected with Plasmodium cynomolgi B strain) treatment started on day 4 post infection and continued daily for 4 days into fresh changed media until day 8 assessed as Liver stage (LS) activity by measuring prophylactic mode by immunofluorescent staining analysis. It is filed as functional, organism-based. To be noted: Hepatocyte.

Series [5] deals with Plasmodium cynomolgi. Kind of series: Antiplasmodial activity against schizont Plasmodium cynomolgi B strain infected in Macaca mulatta hepatocytes incubated with sporozoite containing salivary gland homogenate obtained from dissected Anopheles dirus mosquitoes (infected with Plasmodium cynomolgi B strain) treatment started on day 4 post infection and continued daily for 4 days into fresh changed media until day 8 assessed as Liver stage (LS) activity by measuring radical cure mode by immunofluorescent staining analysis. To be noted: Hepatocyte. Format: functional, organism-based.

Series [6] is described as follows: Toxicity in CF1 mouse infected with asexual blood-stage (ABS) Plasmodium yoelii MRA-428 assessed as hyperactivity at 0.3 to 30 mg/kg, po treated 24 hrs post infection measured after 4 days. As to conditions: in vivo, 96 h, dose 0.3-30 mg/kg, time 4 day. Format: organism-based.
A short description of series [7]: Toxicity in CF1 mouse infected with asexual blood-stage (ABS) Plasmodium yoelii MRA-428 assessed as weight loss at 0.3 to 30 mg/kg, po treated 24 hrs post infection measured after 4 days. Format: organism-based. As to conditions: in vivo, 96 h, dose 0.3-30 mg/kg, time 4 day.
Series [8] relates to Plasmodium falciparum. Kind of series: Antiplasmodial activity against asexual blood-stage (ABS) CQ-sensitive Plasmodium falciparum D6 infected in human erythrocytes assessed as reduction in fluorescence measured after 72 hrs by Malaria SYBR Green I-based Fluorescence (MSF) assay. As to conditions: D6, Erythrocyte. Format: functional, organism-based.
Series [9] relates to Plasmodium cynomolgi. Kind of series: Antiplasmodial activity against hypnozoite Plasmodium cynomolgi B strain infected in Macaca mulatta hepatocytes incubated with sporozoite containing salivary gland homogenate obtained from dissected Anopheles dirus mosquitoes (infected with Plasmodium cynomolgi B strain) treatment started on day 4 post infection and continued daily for 4 days into fresh changed media until day 8 assessed as Liver stage (LS) activity by measuring prophylactic mode by immunofluorescent staining analysis. Format: functional, organism-based. As to conditions: Hepatocyte.

Series [10] is described as follows: Toxicity in CF1 mouse infected with asexual blood-stage (ABS) Plasmodium yoelii MRA-428 assessed as lethargy at 0.3 to 30 mg/kg, po treated 24 hrs post infection measured after 4 days. Format: organism-based. As to conditions: in vivo, 96 h, dose 0.3-30 mg/kg, time 4 day.
Series [11] is described as follows: Toxicity in CF1 mouse infected with asexual blood-stage (ABS) Plasmodium yoelii MRA-428 assessed as ruffled hair at 0.3 to 30 mg/kg, po treated 24 hrs post infection measured after 4 days. Format: organism-based. To be noted: in vivo, 96 h, dose 0.3-30 mg/kg, time 4 day.
Series [12] in a line: Toxicity in CF1 mouse infected with asexual blood-stage (ABS) Plasmodium yoelii MRA-428 assessed as hunching at 0.3 to 30 mg/kg, po treated 24 hrs post infection measured after 4 days. It is filed as organism-based. As to conditions: in vivo, 96 h, dose 0.3-30 mg/kg, time 4 day.
Series [13] deals with Hepatocyte. Kind of series: Cytotoxicity against Macaca mulatta hepatocytes assessed as cell viability measured after 48 hrs by MTT assay. As to conditions: rhesus monkey, 48 h. It is filed as toxicity, cell-based. For orientation: Tetrazolium dyes change colour on reduction, which living cells bring about.
Series [14] deals with Plasmodium falciparum. The series can be described thus: Antiplasmodial activity against asexual blood-stage (ABS) ATV-resistant clinical isolate Plasmodium falciparum Tm90-C2B infected in human erythrocytes assessed as reduction in fluorescence measured after 72 hrs by Malaria SYBR Green I-based Fluorescence (MSF) assay. Format: functional, organism-based. To be noted: Erythrocyte.

In series [15] the test system is HepG2. The series can be described thus: Cytotoxicity against human HepG2 cells assessed as cell viability measured after 48 hrs by MTT assay. Format: functional, cell-based. As to conditions: HepG2, 48 h.
Series [16] in a line: Selectivity index, ratio of CC50 for Macaca mulatta hepatocytes to IC50 for antiplasmodial activity against schizont Plasmodium cynomolgi B strain infected in Macaca mulatta hepatocytes incubated with sporozoite containing salivary gland homogenate obtained from dissected Anopheles dirus mosquitoes (infected with Plasmodium cynomolgi B strain) treatment started on day 4 post infection and continued daily for 4 days into fresh changed media until day 8 assessed as Liver stage (LS) activity by measuring prophylactic mode by immunofluorescent staining analysis. Format: toxicity, cell-based. As to conditions: rhesus monkey, read-out: Selectivity Index.

The nature of series [17]: Selectivity index, ratio of CC50 for Macaca mulatta hepatocytes to IC50 for antiplasmodial activity against schizont Plasmodium cynomolgi B strain infected in Macaca mulatta hepatocytes incubated with sporozoite containing salivary gland homogenate obtained from dissected Anopheles dirus mosquitoes (infected with Plasmodium cynomolgi B strain) treatment started on day 4 post infection and continued daily for 4 days into fresh changed media until day 8 assessed as Liver stage (LS) activity by measuring radical cure mode by immunofluorescent staining analysis. It is filed as toxicity, cell-based. As to conditions: rhesus monkey, read-out: Selectivity Index.

The conditions of series [18]: human, microsomes, 1 h.
Series [19] in a line: Selectivity index, ratio of CC50 for Macaca mulatta hepatocytes to IC50 for antiplasmodial activity against hypnozoite Plasmodium cynomolgi B strain infected in Macaca mulatta hepatocytes incubated with sporozoite containing salivary gland homogenate obtained from dissected Anopheles dirus mosquitoes (infected with Plasmodium cynomolgi B strain) treatment started on day 4 post infection and continued daily for 4 days into fresh changed media until day 8 assessed as Liver stage (LS) activity by measuring prophylactic mode by immunofluorescent staining analysis. Format: toxicity, cell-based. To be noted: rhesus monkey, read-out: Selectivity Index.

The nature of series [20]: Selectivity index, ratio of CC50 for Macaca mulatta hepatocytes to IC50 for antiplasmodial activity against hypnozoite Plasmodium cynomolgi B strain infected in Macaca mulatta hepatocytes incubated with sporozoite containing salivary gland homogenate obtained from dissected Anopheles dirus mosquitoes (infected with Plasmodium cynomolgi B strain) treatment started on day 4 post infection and continued daily for 4 days into fresh changed media until day 8 assessed as Liver stage (LS) activity by measuring radical cure mode by immunofluorescent staining analysis. Format: toxicity, cell-based. To be noted: rhesus monkey, read-out: Selectivity Index.

Here are results for five molecules from ChEMBL document CHEMBL6134844, “Development of Next-Generation Antimalarial Acridones with Radical Cure Potential” (J Med Chem, 2025).

For the molecule `CN(C)CCOc1ccc2c(=O)c3c([nH]c2c1)CCCC3`, the IC50 (commonly the concentration that gives 50% inhibition) in series [1] is more than 2500 nM; in series [2], more than 20000 nM; in series [4], more than 20000 nM; in [5], more than 20000 nM; in [8], more than 2500 nM; in [9], more than 20000 nM. The IC50 in [14] is more than 2500 nM. Further, the CLH in series [3] is more than 500 µL/min/mg. The Activity result in series [6], in series [7], in series [10], in series [11] and in [12] was “Non-toxic” throughout. Also, in series [13], the CC50 (commonly the concentration that lowers cell viability or growth by half) is more than 20000 nM.

Consider `O=c1c2c([nH]c3cc(OC(F)(F)F)ccc13)CCCC2`, for which the IC50 in series [1] is 84.7 nM; in [2], more than 20000 nM; in series [4], 3960 nM; in series [5], more than 20000 nM; in series [15], more than 200000 nM; in series [8], 52.4 nM. For the same molecule, the IC50 was more than 20000 nM in [9] and 58.6 nM in series [14]. The CLH in [3] was determined as 21.3 µL/min/mg. Further, the Activity entry in [6], in [7], in [10], in series [11] and in series [12] was “Non-toxic” in each case. The CC50 in [13] is more than 20000 nM. In addition, in [16], the selectivity ratio at 96 h was more than 5.05.

As for `O=c1c2ccc(OCc3cccc(OC(F)(F)F)c3)cc2[nH]c2ccc(Cl)c(F)c12`, the IC50 in series [1] is 0.0004 nM; in series [2], 1940 nM; in series [4], 60 nM; in series [5] it was 3260 nM; in [15] it was more than 200000 nM; in series [8], 0.00029 nM. For the same molecule, the IC50 in [9] came to 240 nM; in series [14], 181 nM. This molecule also gave a CLH in series [3] of 21.8 µL/min/mg. In addition, the selectivity ratio at 96 h is more than 6.13 in [17], more than 83.3 in series [19], more than 10.3 in series [20] and more than 333 in series [16]. In addition, the t1/2 in series [18] is more than 1 h. Besides, the CC50 in [13] is more than 20000 nM.

`CC(C)(C)OC(=O)N1CCC(Oc2ccc3c(=O)c4c(Cl)cc(F)cc4[nH]c3c2)CC1`: the IC50 was determined as 45.7 nM in series [1]; 4440 nM in series [2]; 150 nM in [4]; 3940 nM in series [5]; 90200 nM in series [15]; 36.7 nM in [8]. For the same molecule, the IC50 in series [9] is 1370 nM; in [14], more than 2500 nM. In addition, in series [3], the CLH was less than 3.125 µL/min/mg. Besides, the selectivity ratio at 96 h in series [17] stood at 1.2; in [19] it was 3.45; in series [20] it was 1.06; in series [16], 31.5. In series [18], this molecule yielded a t1/2 of more than 1 h. The CC50 in series [13] worked out at 4730 nM.

For `CCCN(CCC)CCNc1ccc2c(=O)c3c([nH]c2c1)CCCC3`, the IC50 in series [1] was more than 2500 nM; in [2], more than 20000 nM; in series [4] it was more than 20000 nM; in series [5] it was more than 20000 nM; in series [8], more than 2500 nM; in [9], more than 20000 nM. For the same molecule, the IC50 in series [14] was more than 2500 nM. Further, the CLH in [3] is more than 500 µL/min/mg. The Activity result in series [6], in [7], in series [10], in [11] and in series [12] was “Non-toxic” each time. Also, the CC50 in [13] was more than 20000 nM.
